The results in this text go back to patent US20150290201A1, “TREATMENT OF MUSCULAR DYSTROPHIES AND ASSOCIATED CONDITIONS BY ADMINISTRATION OF MONOAMINE OXIDASE INHIBITORS” (UNIVERSITA DEGLI STUDI DI PADOVA, priority 2011, published 2015).

Assay [1] has as its system mdx mice. The experiment in a line: MAO-dependent ROS formation in muscles of mdx mice. In kind it is in vivo. As to conditions: mdx-parg mice (n = 8). As for the experimental part: (§1) Col6a1^−/− mice were backcrossed in the inbred C57BL/6J strain for eight generations as described (Irwin, W. A., et al., (2003) Nat. Genet., 35, 367-371), and data were obtained by comparing Col6a1^−/− mice with their wild-type littermates. Wild-type C57BL/10 mice and mdx (in the C57BL/10 background) were obtained from Charles River and Jackson Laboratories, respectively. Pargyline (50 mg/kg/days) or vehicle (phosphate-buffered saline, PBS) were administered by daily intraperitoneal (i.p.) injection for 7 days in 6-month-old Col6a1^−/− and C57BL/6J male mice or 5-week-old mdx and C57BL/10 male mice. During the treatment, mice were placed in separate cages with a running wheel. At the end of the treatment, mice were sacrificed and muscles were removed and stored in liquid nitrogen until use.
(§2) DHE is oxidized by ROS, forming ethidium bromide, which emits red fluorescence when intercalates with DNA (Benov, L., et al., (1998) Free Radic. Biol. Med., 25, 826-831). […] For the detection of the fluorescence, 568±25 nm excitation and 585 nm long-pass emission filter settings were used. Data were acquired and analyzed using Metamorph software (Universal Imaging).

The subject of assay [2] is Col6a1^−/− myoblasts. The assay is described as follows: Mitochondrial ROS production (Mitotracker Red) in myoblasts under oxidative stress. In kind it is cell-based, mice. As to conditions: Col6a1−/− diaphragm myoblasts, 100 uM pargyline; inducers 100 uM H2O2, 5 uM arachidonic acid, 0.2 uM antimycin. The method, then:
Myoblasts obtained from the diaphragm of Col6a1^−/− and Col6a1^+/+ mice were loaded with Mitotracker Red (MTR, 20 nM) to assess mitochondrial ROS production. After the first acquisition (with a fluorescence microscope), different inducers of oxidative stress (A: 100 uM H2O2, B: 5 uM arachidonic acid, C: 0.2 uM antimycin) were added and frames were collected at different intervals in the absence (filled square) and in the presence (filled triangles) of a MAO inhibitor (100 uM pargyline).
The extent of ROS accumulation in myoblasts obtained from diaphragm of Col6a1^−/− and Col6a1^+/+ mice was assessed. […] Remarkably, MAO inhibition reduced the presence of ROS in Col6a1^−/− myoblasts underlying the relevance of ROS production due to MAO activity.

Assay [3] concerns Col6a1^−/− mice. The experiment in a line: DHE staining for ROS detection in muscle cryosections of Col6a1−/− mice. It counts as in vivo. As to conditions: 6-month-old Col6a1−/− mice, pargyline 50 mg/kg/day i.p. 1 week. As for the experimental part:
as §1
DHE is oxidized by ROS, forming ethidium bromide, which emits red fluorescence when intercalates with DNA (Benov, L., et al., (1998) Free Radic. Biol. Med., 25, 826-831). […] For the detection of the fluorescence, 568±25 nm excitation and 585 nm long-pass emission filter settings were used. Data were acquired and analyzed using Metamorph software (Universal Imaging). […]

Assay [4] has as its system mdx mice. The assay is described as follows: Tm oxidation (DCB formation) by immunoelectrophoresis, mdx mice. It counts as in vivo. The following applies: gastrocnemius and quadriceps, i.p. pargyline for 1 week. The method, then: as §1
Protein extracts were prepared as described (Canton, M., et al., (2006) Eur. Heart J., 27, 875-881). Immunoblotting were stained with the following antibodies: anti-Tm CH1 clone (Sigma), anti-MAO-B D-16 and anti-MAO-A H-70 clone (Santa Cruz). […] Quantitation of Tm oxidation was performed by densitometric analysis of the bands obtained under non-reducing conditions (ImageJ software). […] Data were expressed as percentage of DCB relative to vehicle-treated wild-type mice. […]

For assay [5], the system named is Col6a1^−/− mice. The assay is described as follows: Tm oxidation (DCB formation) by immunoelectrophoresis, Col6a1−/− mice. It counts as in vivo. As to conditions: Col6a1−/− diaphragm, pargyline 50 mg/kg/day i.p. 1 week.
For assay [6], the system named is Col6a1^−/− mice. The assay is described as follows: Pathological markers (TUNEL, IgG staining, Evans blue, myofiber CSA) in Col6a1−/− mice. It counts as in vivo. The following applies: pargyline treatment. The method, then: as §1
(§3) Cross-sections (7 μm thick) were prepared and processed for hematoxylin and eosin (H&E) staining. For the morphometric analysis of myofiber cross sectional areas (CSAs), we counted approximately 2000 fibers per mouse for each muscle type by means of ImageJ software. At least three sections from each muscle were analyzed. TUNEL (terminal deoxynucleotidyl transferase-mediated dUTP nick end-labeling) was performed on paraffin-embedded sections (7 μm thick) using the ApopTag in situ apoptosis detection kit (Chemicon). Samples were stained with peroxidase diaminobenzidine to detect TUNEL-positive nuclei and counterstained with Hoechst 33258 to identify all nuclei, as described previously (Irwin, W. A., et al., (2003) Nat. Genet, 35, 367-371). The total number of nuclei and number of TUNEL-positive nuclei were determined in randomly selected fibers using a Zeiss Axioplan microscope equipped with a Leica DC 500 camera. Membrane permeability of skeletal muscle was directly visualized by immunohistochemical staining with IgG (Weller, B., et al., (1990) J. Neurol. Sci., 100, 9-13 and Blaauw, B., et al., (2008) Hum. Mol. Genet., 17, 3686-36%). Cryosections (10 μm thick) were incubated with anti-mouse fluorescein isothiocyanate-conjugated IgG, washed twice with PBS, mounted and visualized with an Olympus IMT-2 inverted microscope as previously described (Petronilli V., et al., (1999) Biophys. J., 76, 725-734) using excitation/emission cubes of 488/525±25 nm bandpass. Evans blue dye staining of muscles in vivo was performed by i.p. injection with 0.2 ml Evans blue (10 mg/ml in PBS; Sigma). Mice were sacrificed after 16-18 h and diaphragms were fixed with 4% paraformaldehyde overnight at 4° C. After fixation, the samples were observed by means of light microscopy.
Contractile impairment and high apoptosis rate are two specific features of skeletal muscles of Col6a1^−/− mice (Irwin, W. A., et al. (2003) Nat. Genet 35, 367-371). […] Occurrence of apoptosis was evaluated by TUNEL. […]

Assay [7] deals with Wild-type C57BL/10 mice. The experiment in a line: ROS formation in muscles of wild-type C57BL/10 mice. In kind it is in vivo. As to conditions: WT-parg mice (n = 8); WT-veh = 100.0. The method, then:
as §1, §2

The test system of assay [8] is Col6a1^−/− mice. The experiment in a line: Muscle functional assessment (skinned fiber tension, gastrocnemius force, running wheel) in Col6a1−/− mice. In kind it is in vivo. As for the experimental part:
as §1
Single myofibers were isolated from Col6a1^−/− gastrocnemius muscle, chemically skinned as described (Rossi, R., et al., (2001) Am. J. Physiol. Cell Physiol., 281, C585-0594) and tension was measured during maximal isometric activation (pCa=4.5, T=20° C., initial sarcomere length=2.75 μm). Force measurements were performed in the left and/or right gastrocnemius muscle of anesthetized mice by electrical stimulation through the sciatic nerve, as described previously (Blaauw, B., et al., (2008) Hum. Mol. Genet., 17, 3686-3696). Voluntary exercise was evaluated by placing a wheel in the cage. Before the treatment, mice were placed in separate cages with wheel to acclimatize, then the average distance covered by each mouse in 24 h during the treatment was measured using an automatic counter.
Biochemical and histological analyses were paralleled by functional assessment of the contractile performance of muscles in vivo and isolated muscle fibers in vitro. Single-skinned muscle fibers dissected from gastrocnemius muscle were maximally calcium-activated at optimal sarcomere length. […] After acclimatizing mice for 1 week to a wheel placed in their cage, the daily average distance was measured.

The test system of assay [9] is MAO. The experiment in a line: MAO activity assay (Amplex Red/HRP, tyramine) on muscle mitochondrial extracts after in vivo treatment. As to conditions: Col6a1−/− mice, gastrocnemius, pargyline 50 mg/kg/day i.p. for 1 week.
Procedure: Muscle cryosections were suspended in PBS and centrifuged at 500 g for 10 min at 4° C. The supernatant was centrifuged at 8000×g for 10 min at 4° C. and the resulting pellet was resuspended in PBS and stored on ice until use. Protein concentration was determined by the Bradford assay (Bio-Rad). MAO activity assay was based on the detection of hydrogen peroxide generated during substrate catabolism in a horseradish peroxidase (HRP) coupled reaction using 10-acetyl-3,7-dihydroxyphenoxazine (Amplex Red reagent, Molecular Probes). The mitochondrial protein extracts (40 mg) were incubated in PBS with 10 mM Amplex Red and 15 mg/ml HRP. […] The fluorescence intensity was recorded at 37° C. using a Perkin Elmer LS-50B fluorimeter at the 544/590 nm excitation/emission wavelengths. Parallel samples were run in the absence of a substrate to take into account the increase in fluorescence not due to MAO activity. […]
Assay [10] deals with mdx mice. The experiment in a line: Pathological markers (myofiber CSA, H&E inflammation, TUNEL) in mdx mice. In kind it is in vivo. As to conditions: pargyline treatment. As for the experimental part:
as §1
as §3, with “Cryosections (10 μm thick) were incubated with anti-mouse fluorescein isothiocyanate-conjugated IgG, washed twice with PBS, mounted and visualized with an Olympus IMT-2 inverted microscope as previously described (Petronilli V., et al., (1999) Biophys. J., 76, 725-734) using excitation/emission cubes of 488/525±25 nm bandpass. Evans blue dye staining of muscles in vivo was performed by i.p. injection with 0.2 ml Evans blue (10 mg/ml in PBS; Sigma). Mice were sacrificed after 16-18 h and diaphragms were fixed with 4% paraformaldehyde overnight at 4° C. After fixation, the samples were observed by means of light microscopy.” left out

Take `C#CCN(C)Cc1ccccc1` [Pargyline, N-Benzyl-N-methylprop-2-yn-1-amine]: the “ROS formation, Quadriceps” value is given as 102.9 ± 1.5 in assay [1] (WT-veh = 100.0, mdx-veh 119.3 ± 1.3, in %) and 96.9 ± 6.2 in assay [7]. Besides, the “ROS formation, Gastrocnemius” value in [1] (WT-veh = 100.0, mdx-veh 127.8 ± 9.0) was found to be 105.6 ± 2.2; in assay [7], 102.8 ± 2.8. Moreover, in [2], the “susceptibility to oxidative stress / mitochondrial ROS (Mitotracker Red)” value was “reduced”. The “abnormal production of ROS (DHE fluorescence) in muscles” value in assay [3] is listed as “significantly decreased”. Moreover, in assay [4], the “oxidative modifications (Tm oxidation, DCB)” value is “significantly decreased”. For the same molecule, in assay [5], the “DCB content (Tm oxidation)” value is “significantly reduced”. Besides, the “damaged myofibers stained by Evans blue” value in assay [6] (Col6a1−/− diaphragm) was “largely reduced”. In assay [6] (Col6a1−/− diaphragm), the “number of damaged fibers positive to IgG immunohistochemical staining” value was “significantly decreased”. Also, the “number of TUNEL-positive nuclei” value in assay [6] (Col6a1−/− mice, diaphragm sections, vehicle 62.4±2.3, wild-type 2.7±1.2) is recorded as 6.9±1 nuclei/mm^2. Further, the “myofiber cross-sectional area variability (different sizes, prevalence of small fibers)” value in [6] (Col6a1−/− tibialis anterior and diaphragm) is given as “markedly reduced”. Also, the “normalized force of gastrocnemius muscle in vivo” value in assay [8] (Col6a1−/− mice, pargyline treatment) is listed as “significantly increased”. Moreover, the “voluntary exercise performance (running wheel, daily average distance)” value in assay [8] (Col6a1−/− mice, pargyline-treated versus untreated) is recorded as “significant improvement”. The “contractile impairment (isometric tension of single-skinned fibers)” value in assay [8] (gastrocnemius fibers of pargyline-treated Col6a1−/− mice, maximal calcium activation) is given as “disappeared”. For the same molecule, the “MAO activity in skeletal muscle after treatment” value in assay [9] was “abolished”. Further, the “number of TUNEL-positive nuclei (apoptosis)” value in assay [10] (diaphragm sections) was “significantly lower incidence”. Also, the “myofiber CSA fiber area distribution” value in [10] (gastrocnemius muscle) is listed as “normalized the fiber area distribution”. Besides, in assay [10], the “tissue inflammation in skeletal muscles (H&E)” value is “reduce tissue inflammation”.
